Assay results reported in the METLIN SMRT retention time set (Domingo-Almenara et al. 2019).

test: gradient 5% acetonitrile 3 min, to 50% in 2 min, to 85% in 15 min, held 3 min, 100 µL/min; details: column: Zorbax Extend-C18 2.1 x 50 mm; eluents: water / acetonitrile, 0.1% formic acid
Summary of the method: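 Each retention time is based on an adduct peak selected computationally and verified by manual inspection. Measurements used HPLC–quadrupole time-of-flight mass spectrometry in positive and negative ionization mode on mixtures of ~100 pure standards. Chromatography ran on a Zorbax Extend-C18 column (2.1 × 50 mm, 1.8 μm) at 100 μL/min with water and acetonitrile, each containing 0.1% formic acid, and dead and dwell volumes of 40 μL and 900 μL.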

| RP-LC retention time [s] | Compound |
| --- | --- |
| 687 | CCOCCCNC(=O)C1CCCN(c2nnc(C)c3c(C)n(-c4ccc(C)cc4)nc23)C1 (stereo not drawn) |
| 817 | Cc1ccc(NC(=O)C2CCCN2S(=O)(=O)c2cc3c(cc2C)NC(=O)CO3)c(C)c1 (stereo not drawn) |
| 860 | CCOc1ccc(-c2[nH]ncc2CNS(=O)(=O)c2ccc(OC)c(Cl)c2)cc1 |
| 1210 | O=C(Nc1ccc(Cl)cc1)c1cc2c(cc1O)[nH]c1ccccc12 |
| 930 | N#CC1=CN(c2cccc(C(F)(F)F)c2)c2ccccc2S1(=O)=O |
| 758 | CC1=C(c2ccc(Cl)cc2)S(=O)(=O)N=C1N1CCCN(C(=O)C2CCCO2)CC1 (stereo not drawn) |
| 614 | CCCN(CCC)Cc1ccc(CNC(=O)C2CCCN(c3nnc(N4CCCC4=O)s3)C2)o1 (stereo not drawn) |
| 1120 | COc1cc(OC)c(NC(=O)N2c3ccccc3CC2c2nc(C3CC3)no2)cc1Cl (stereo not drawn) |
| 906 | COc1cc(OC)cc(N2C=C(C#N)S(=O)(=O)c3c(F)cccc32)c1 |
| 918 | Fc1ccc(F)c(CN2CCCCC2c2nc(-c3cnccn3)no2)c1 (stereo not drawn) |
| 625 | CCOC(=O)C1=C(CN2CCN(C(C)CC)CC2)NC(=O)NC1c1ccccc1 (stereo not drawn) |
| 610 | COCCOC1CCC12CCN(Cc1ccccc1C#N)CC2 (stereo not drawn) |
| 1130 | COc1ccc(Br)cc1CNC(=O)c1sc2ncccc2c1-n1cccc1 |
| 1070 | Cc1noc(C)c1S(=O)(=O)N1CCC2(CC1)CC(OCc1ccccc1)CCO2 (stereo not drawn) |
| 706 | Cc1ccc2c(c1)N(CCCC(=O)N1CCN(Cc3cn(C)c4ccccc34)CC1)C(=O)CO2 |
| 683 | COc1cc(C(=O)N2CCC(c3nc4cccnc4n3C)C2)ccc1C (stereo not drawn) |
| 597 | O=C(Cn1nnc2ccccc2c1=O)Nc1nc2ccccc2[nH]1 |
| 669 | CCNc1cc(N2CCC(CCC(=O)NCc3cc(F)cc(F)c3)CC2)ncn1 |
| 1060 | Brc1cccc(-c2nnc(Cc3nc(-c4ccc5c(c4)OCO5)no3)o2)c1 |
| 785 | COc1ccc(CCCOC(Cn2ccnc2)c2ccc(OC)cc2)cc1 (stereo not drawn) |
| 1160 | Cc1ccc2c(c1)OCC(=O)N2Cc1nc(-c2cccc(Cl)c2)no1 |
| 1020 | O=C(NCCCc1ccccc1)C1CCCN(c2nccnc2Oc2ccccc2)C1 (stereo not drawn) |

| RP-LC retention time [s] | Compound |
| --- | --- |
| 911 | c1ccc(-c2nnc3oc(-c4cccs4)nn23)cc1 |
| 901 | Cc1ccc2c(c1)c1c3n2CCN(c2nc(-c4ccccc4)cs2)C3CCC1 (stereo not drawn) |
| 626 | COCCCN1CN=C(Nc2nc(C)c3ccccc3n2)NC1 |
| 907 | CCC1Oc2ccc(S(=O)(=O)N3CCC(C(=O)Nc4ccccc4Cl)CC3)cc2NC1=O (stereo not drawn) |
| 961 | CCN(C(=O)CN1C(=O)CCCc2cc(S(=O)(=O)N3CCCCC3)ccc21)c1ccc(OC)cc1 |
| 899 | Cc1cc(F)ccc1NC(=O)c1sc(-c2cn(C)c3ncccc23)nc1C |
| 1090 | COc1ccccc1NC(=O)Cn1c(C)nc2c(sc3nc(-c4ccccc4)ccc32)c1=O |
| 849 | O=C(Nc1ccc(Br)cc1)NC1CCN(c2ccccc2)C1=O (stereo not drawn) |
| 842 | COC(=O)CCNC(=O)C1c2ccccc2C(=O)N(CC(C)C)C12CCCCC2 (stereo not drawn) |
| 884 | CSc1ncccc1C(=O)Nc1ccc(OCc2nnc(-c3ccccc3)o2)cc1 |
| 718 | COCCN1CCn2cc(S(=O)(=O)Nc3cccc(Cl)c3)cc2C1=O |
| 609 | O=C(Nc1ccc(-c2nnc3n2CCCC3)cc1)C1CC1 |
| 802 | Cc1ccccc1Nc1c(-c2ccc(Cl)cc2)nc2c(C)cccn12 |
| 986 | CCOc1ccc(-c2noc(-c3nc(C)no3)n2)cc1 |
| 759 | Cc1ccn2c(NC(=O)COc3ccc(Cl)cc3)c(-c3ccc(F)cc3)nc2c1 |
| 1100 | COc1ccc(-c2cc(-c3ccccc3)c(-c3ccccc3)nn2)cc1 |
| 791 | O=C(Nc1ccc(Cl)c(N2CCCS2(=O)=O)c1)c1ccccc1C(F)(F)F |
| 750 | Clc1ccc(Cn2c(CN3CCCC3)nc3ccccc32)cc1 |
| 903 | O=C(NCC1CCN(C(=O)c2cc3ccccc3o2)CC1)c1cc(-c2ccccc2)on1 |
| 1100 | CCc1nc(-n2cccc2)sc1C(=O)Nc1ccccc1F |
| 869 | COc1ccc(-c2cn3c(CC(=O)Nc4ccc(C(F)(F)F)cc4)csc3n2)cc1 |
| 696 | CCOc1ccc(-c2cc(=O)n(CCCC(=O)Nc3ccc(-n4cnnn4)cc3)cn2)cc1 |

| RP-LC retention time [s] | Compound |
| --- | --- |
| 752 | COc1ccc(N2CCN(C(=O)CN3C(=O)NC(c4ccc(Cl)cc4)C4=C3COC4=O)CC2)cc1 (stereo not drawn) |
| 668 | C/C(=C\c1csc(C)n1)C1C[C@@H]2O[C@]2(C)CCC[C@H](C)[C@H](O)[C@@H](C)C(=O)C(C)(C)[C@@H](O)CC(=O)N1 (stereo partly drawn) |
| 844 | Cc1ccc(S(=O)(=O)N2CCC(n3cnnc3-c3ccccc3)CC2)c(C)c1 |
| 819 | Cc1cc(C)cc(NC(=O)Cn2nc(C(=O)N3CCOCC3)c3ccccc32)c1 |
| 1020 | Fc1cccc(CSc2ccc(-c3ccc4c(c3)OCO4)nn2)c1 |
| 806 | O=C(Cn1cc(S(=O)(=O)Cc2ccccc2F)c2ccccc21)NCC1CCCO1 (stereo not drawn) |
| 911 | O=C(C1CCN(c2nc3ccc(-c4ccsc4)nc3s2)CC1)N1CCCCC1 |
| 856 | Cc1ccc(-c2cc(C(=O)O)n(C)c2)cc1 |
| 556 | Cc1cc(C(=O)N2CCN(c3ccccn3)CC2)nc2ccnn12 |
| 1300 | CCn1c(C(=O)Nc2ccc(C)c(C)c2)cc2sc(Cl)cc21 |
| 797 | O=C(NCCC1=CCCCC1)c1csc(Nc2ncccn2)n1 |
| 662 | O=C(NCc1ccccc1)C1CCN(c2cnc3nccnc3c2)CC1 |
| 778 | O=C(NC1CCCCC1)C1CCCN(c2ncnc3c2nc2n3CCCCC2)C1 (stereo not drawn) |
| 1060 | N#Cc1ccc(C(=O)N2CCCC2c2nc(-c3cccc(C(F)(F)F)c3)no2)cc1 (stereo not drawn) |
| 708 | COc1ccc(NC(=O)N2CCC(n3c(-c4ccco4)nc4cccnc43)C2)cc1 (stereo not drawn) |
| 734 | COc1ccc(C)cc1NC(=O)NCC(c1cccnc1)c1cn(C)c2ccccc12 (stereo not drawn) |
| 673 | O=C(Nc1ccc2c(c1)OCCO2)C1CCN(c2cncnc2N2CCCCC2)CC1 |
| 827 | COc1ccc(Cn2nc3ccc(S(=O)(=O)N4CCCC4)cn3c2=O)cc1 |
| 954 | CC(C)N1C(=O)c2cccnc2Sc2cc(NC(=O)Cc3ccc(Cl)cc3)ccc21 |
| 640 | CN(C(=O)Cn1nc(Cc2ccncc2)c2ccccc2c1=O)C1CCCCC1 |
| 677 | CC(=O)N1N=C(c2ccc(Br)cc2)CC1c1ccc2ncccc2c1 (stereo not drawn) |
| 1010 | Cc1nnc(-c2ccc3ccn(CC(=O)NCc4ccccc4)c3c2)o1 |

| RP-LC retention time [s] | Compound |
| --- | --- |
| 750 | CSc1ccc(CNC(=O)C2CCCN(c3ncnc4nn(-c5ccc(C)cc5)cc34)C2)cc1 (stereo not drawn) |
| 862 | O=C1OC(Nc2nc(-c3cccc(Br)c3)cs2)c2ccccc21 (stereo not drawn) |
| 696 | c1ccc(-c2nc[nH]c2-c2ccccc2)cc1 |
| 934 | O=c1ccc(-c2ccc3c(c2)OCO3)nn1Cc1nc(-c2ccc3c(c2)OCO3)no1 |
| 832 | CCc1noc2nc(C)n(CC(=O)NCc3ccccc3OC)c(=O)c12 |
| 710 | COc1ccccc1Oc1c(C)oc2cc(OCC(=O)N[C@H](C)C(=O)O)ccc2c1=O |
| 750 | Cc1ccc(S(=O)(=O)N2CCC3(CC2)NCCN=C3NCc2cccc(F)c2)c(C)c1 |
| 787 | COc1ccc(-n2c(=O)n(C)c(=O)c3cc(C(=O)Nc4ccccc4C(N)=O)cnc32)cc1 |
| 744 | COc1cc(CNCCSc2nnnn2C)cc(Br)c1OCc1ccccc1 |
| 620 | CN(NC1=NCCO1)c1ccc2ccccc2c1 |
| 675 | COc1cc(NC(=O)Cc2cn3cc(Cl)ccc3n2)c(OC)cc1Cl |
| 617 | Cn1c(CNC(=O)C2CCC2)nc2c1CN(S(=O)(=O)c1cccs1)CC2 |
| 803 | CC(C)CC(NC(=O)CC1CCCCC1)C(=O)Nc1nc2ccccc2[nH]1 (stereo not drawn) |
| 699 | N#Cc1ccc(C(=O)NCc2[nH]nc3ccccc23)cc1 |
| 1280 | O=S(=O)(NC1CCCCC1)c1ccccc1-c1nc(-c2ccccc2)no1 |
| 642 | O=C(CC1CCCC1)N1CCN(c2nc(CN3CCCCC3)cs2)CC1 |
| 818 | O=C(NCc1ccccc1F)C1=C2CCCN2c2ccccc2S1(=O)=O |
| 1290 | CCC(C)n1c(=O)c2ccccc2n(Cc2nc(-c3cccc(Br)c3)no2)c1=O (stereo not drawn) |
| 827 | CCOc1ccccc1NC(=O)N1CCc2cn(CCOC)c3cccc(c23)C1 |
| 1070 | CC(CCc1ccccc1)NC(=O)C1CCN(S(C)(=O)=O)c2cc(Cl)ccc2O1 (stereo not drawn) |

| Compound | RP-LC retention time [s] |
| --- | --- |
| COc1ccc2c(c1OC)C(=O)O[C@@H]2[C@H]1c2cc3c(cc2CCN1C)OCO3 | 660 |
| C=CCCC1(C2=CCCCC2)C(=O)NC(=O)NC1=O | 804 |
